Data: paper PMC9230201, “Sustained Consumption of a Decaffeinated Green Coffee Nutraceutical Has Limited Effects on Phenolic Metabolism and Bioavailability in Overweight/Obese Subjects” (Nutrients, 2022)
Where “and” joins values, the source holds several entries; their conditions need not be identical. Identical values can stand only once.

Experiment: Urinary excretion of phenolic metabolites after intake of the GCPE nutraceutical
Settings: for Urinary excretion / Cumulative urinary excretion, Total 0–24 h: urine; for Cumulative urinary excretion, Total 0–24 h: mean ± SEM, n = 9

Compound | Urinary excretion (week 0) [µmol/24 h] | Cumulative urinary excretion, Total 0–24 h (week 0) [µmol] | Urinary excretion (week 8) [µmol/24 h] | Cumulative urinary excretion, Total 0–24 h (week 8) [µmol] | Amount excreted in urine, 0- 3 h (week 0, interval 0–3 h) [µmol] | Amount excreted in urine, 3-6 h (week 0, interval 3–6 h) [µmol] | Amount excreted in urine, 6-9 h (week 0, interval 6–9 h) [µmol] | Amount excreted in urine, 9-11 h (week 0, interval 9–11 h) [µmol] | Amount excreted in urine, 11-24 h (week 0, interval 11–24 h) | Amount excreted in urine, 0- 3 h (week 8, interval 0–3 h) | Amount excreted in urine, 3-6 h (week 8, interval 3–6 h) | Amount excreted in urine, 6-9 h (week 8, interval 6–9 h) [µmol] | Amount excreted in urine, 9-11 h (week 8, interval 9–11 h) [µmol] | Amount excreted in urine, 11-24 h (week 8, interval 11–24 h) | Cumulative urinary excretion, Total 0–24 h (week 0, listed as coumaroylquinic acid) [µmol] | Cumulative urinary excretion, Total 0–24 h (week 8, listed as coumaroylquinic acid) [µmol]
O=C(CCc1ccc(O)c(O)c1)OC1CC(O)(C(=O)O)CC(O)C1O (stereo not shown) [3-Dihydrocaffeoylquinic acid] | 0.35 | 0.35 ± 0.07 | 0.27 | 0.27 ± 0.08 | 0.06 ± 0.02 | 0.033 ± 0.005 | 0.05 ± 0.02 | 0.04 ± 0.01 | 0.17 ± 0.04 µmol | 0.025 ± 0.007 µmol | 0.019 ± 0.005 µmol | 0.04 ± 0.01 | 0.03 ± 0.01 | 0.15 ± 0.06 µmol | – | –
O=C(O)/C=C/c1ccc(O)c(OS(=O)(=O)O)c1 [CA-3′-sulfate, 4′Hydroxycinnamic acid-3′-sulfate] | – | 3.7 ± 0.5 | – | 4.4 ± 0.8 | 1.2 ± 0.3 | 0.7 ± 0.2 | 0.8 ± 0.2 | 0.21 ± 0.06 | 0.9 ± 0.2 µmol | 1.2 ± 0.2 µmol | 0.6 ± 0.1 µmol | 0.9 ± 0.3 | 0.7 ± 0.3 | 1 ± 0.3 µmol | – | –
COc1ccc(C=CC(=O)O)cc1OS(=O)(=O)O [iFA-3′-sulfate, 4′-Methoxycinnamic acid-3′-sulfate] | – | 1.1 ± 0.3 | – | 2.1 ± 0.9 | 0.4 ± 0.1 | 0.07 ± 0.04 | 0.24 ± 0.08 | 0.09 ± 0.03 | 0.4 ± 0.1 µmol | 0.34 ± 0.07 µmol | 0.1 ± 0.03 µmol | 0.32 ± 0.06 | 0.3 ± 0.1 | 1 ± 0.7 µmol | – | –
COc1cc(CCC(=O)OC2CC(O)(C(=O)O)CC(O)C2O)ccc1O (stereo not shown) [3-Dihydroferuloylquinic acid] | – | 0.3 ± 0.1 | – | 0.5 ± 0.07 | 0.05 ± 0.01 | 0.034 ± 0.006 | 0.029 ± 0.006 | 0.019 ± 0.005 | 0.16 ± 0.09 µmol | 0.11 ± 0.02 µmol | 0.062 ± 0.008 µmol | 0.08 ± 0.01 | 0.08 ± 0.02 | 0.14 ± 0.02 µmol | – | –
O=C(O)CCc1ccc(OS(=O)(=O)O)cc1 [DHCoA-4′-sulfate, 3-(Phenyl)propanoic acid-4′-sulfate] | – | 21 ± 6 | – | 21 ± 4 | 0.9 ± 0.4 | 0.7 ± 0.1 | 3 ± 1 | 3 ± 1 | 12 ± 4 µmol | 2 ± 0.8 µmol | 1.5 ± 0.5 µmol | 5 ± 2 | 5 ± 2 | 7 ± 3 µmol | – | –
COc1ccc(/C=C/C(=O)NCC(=O)O)cc1O [IsoFeruloylglicine] | – | 0.44 ± 0.04 | – | 0.6 ± 0.1 | 0.04 ± 0.01 | 0.035 ± 0.009 | 0.08 ± 0.02 | 0.11 ± 0.01 | 0.16 ± 0.03 µmol | 0.13 ± 0.05 µmol | 0.1 ± 0.02 µmol | 0.12 ± 0.04 | 0.06 ± 0.02 | 0.17 ± 0.05 µmol | – | –
Dihydrocoumaroylquinic acid | 0.22 | – | 0.17 | – | – | – | – | – | 0.12 µmol and 0.14 µmol | 0.03 µmol and 0.017 µmol | 0.009 µmol and 0.01 µmol | – | – | 0.09 µmol and 0.12 µmol | – | –
O=C(O)CCc1ccc(O[C@@H]2O[C@H](C(=O)O)[C@@H](O)[C@H](O)[C@H]2O)cc1 [DHCoA-4′-glucuronide, 3-(Phenyl)propanoic acid-4′-glucuronide] | – | 2.1 ± 0.3 | – | 1.9 ± 0.3 | 0.17 ± 0.06 | 0.1 ± 0.03 | 0.26 ± 0.09 | 0.28 ± 0.07 | 1.3 ± 0.2 µmol | 0.23 ± 0.09 µmol | 0.16 ± 0.05 µmol | 0.56 ± 0.2 | 0.4 ± 0.1 | 1 ± 0.1 µmol | – | –
Coumaroylquinic acid | – | 0.14 ± 0.03 | – | 0.10 ± 0.02 | 0.03 ± 0.01 | 0.015 ± 0.003 | 0.017 ± 0.006 | 0.015 ± 0.004 | 0.06 ± 0.02 µmol | 0.009 ± 0.003 µmol | – | 0.014 ± 0.002 | 0.012 ± 0.004 | 0.06 ± 0.02 µmol | 0.14 | 0.10
COc1ccc(C=CC(=O)O)cc1O[C@@H]1O[C@H](C(=O)O)[C@@H](O)[C@H](O)[C@H]1O [iFA-3′-glucuronide, 4′-Methoxycinnamic acid-3′-glucuronide] | – | 4.4 ± 0.5 | – | 6 ± 1 | 0.9 ± 0.2 | 0.8 ± 0.2 | 1.1 ± 0.3 | 0.49 ± 0.09 | 1.1 ± 0.2 µmol | 1.4 ± 0.3 µmol | 0.9 ± 0.2 µmol | 1.7 ± 0.3 | 1 ± 0.4 | 1.1 ± 0.3 µmol | – | –
O=C(O)CCc1ccc(O)c(OS(=O)(=O)O)c1 [DHCA-3′-sulfate, 3-(4′-Hydroxyphenyl)propanoic acid-3′-sulfate] | – | 9 ± 2 | – | 9 ± 3 | 0.32 ± 0.07 | 0.26 ± 0.07 | 2.5 ± 0.9 | 2 ± 0.7 | 4 ± 1 µmol | 0.7 ± 0.2 µmol | 0.6 ± 0.2 µmol | 2.5 ± 0.6 | 3 ± 1 | 2 ± 1 µmol | – | –
COc1cc(CCC(=O)OC2CC(O)(C(=O)O)CC(O)C2O)ccc1O (stereo not shown) [5-Dihydroferuloylquinic acid] | – | 0.3 ± 0.1 | – | 0.18 ± 0.07 | 0.12 ± 0.08 | 0.023 ± 0.004 | 0.027 ± 0.009 | 0.013 ± 0.004 | 0.1 ± 0.04 µmol | 0.08 ± 0.04 µmol | 0.021 ± 0.008 µmol | 0.03 ± 0.02 | 0.008 ± 0.003 | 0.04 ± 0.02 µmol | – | –
O=C(/C=C/c1ccc(O)c(O)c1)O[C@@H]1C[C@](O)(C(=O)O)C[C@@H](O)[C@H]1O [3-Caffeoylquinic acid] | – | 0.21 ± 0.05 | – | 0.18 ± 0.03 | 0.11 ± 0.02 | 0.08 ± 0.03 | 0.022 ± 0.009 | 0.003 ± 0.002 | – | 0.1 ± 0.02 µmol | 0.045 ± 0.008 µmol | 0.028 ± 0.007 | 0.008 ± 0.005 | – | – | –
O=C(/C=C/c1ccc(O)c(O)c1)O[C@@H]1C[C@@](O)(C(=O)O)C[C@@H](O)[C@@H]1O [5-Caffeoylquinic acid] | – | 0.33 ± 0.06 | – | 0.33 ± 0.04 | 0.18 ± 0.04 | 0.12 ± 0.04 | 0.03 ± 0.01 | 0.004 ± 0.002 | – | 0.18 ± 0.04 µmol | 0.08 ± 0.01 µmol | 0.033 ± 0.008 | 0.009 ± 0.007 | 0.006 ± 0.006 µmol | – | –
COc1cc(CCC(=O)OC2C(O)CC(O)(C(=O)O)CC2O)ccc1O (stereo not shown) [4-Dihydroferuloylquinic acid] | – | 0.06 ± 0.02 | – | 0.05 ± 0.02 | 0.011 ± 0.004 | 0.008 ± 0.003 | 0.013 ± 0.005 | 0.005 ± 0.003 | 0.019 ± 0.009 µmol | 0.015 ± 0.008 µmol | – | 0.011 ± 0.007 | 0.003 ± 0.002 | 0.009 ± 0.005 µmol | – | –
O=C(O)CCc1ccc(O)c(O[C@@H]2O[C@H](C(=O)O)[C@@H](O)[C@H](O)[C@H]2O)c1 [DHCA-3′-glucuronide, 3-(4′-Hydroxyphenyl)propanoic acid-3′-glucuronide] | – | 0.6 ± 0.2 | – | 0.5 ± 0.1 | 0.09 ± 0.03 | 0.07 ± 0.02 | 0.08 ± 0.04 | 0.04 ± 0.02 | 0.3 ± 0.09 µmol | 0.11 ± 0.04 µmol | 0.06 ± 0.02 µmol | 0.08 ± 0.02 | – | 0.2 ± 0.06 µmol | – | –
O=C(CCc1ccc(O)c(O)c1)OC1C(O)CC(O)(C(=O)O)CC1O (stereo not shown) [4-Dihydrocaffeoylquinic acid] | – | 0.06 ± 0.02 | – | 0.04 ± 0.02 | 0.011 ± 0.004 | 0.005 ± 0.002 | 0.005 ± 0.002 | 0.006 ± 0.002 | 0.036 ± 0.008 µmol | 0.008 ± 0.004 µmol | 0.003 ± 0.002 µmol | 0.004 ± 0.002 | 0.004 ± 0.003 | 0.02 ± 0.01 µmol | – | –
